Measurements: US8399493B2, “Pyridinone derivatives and their use as positive allosteric modulators of mGluR2-receptors” (Janssen Pharmaceuticals, Inc., priority 2004, dated 2013)

Tests used:
Male C57BL6/j mice [1] = assay: Amphetamine-induced locomotor activity in mice (amphetamine model of schizophrenia); assay type: in vivo; conditions: 200 mg/kg i.p., amphetamine 3.0 mg/kg s.c., distance traveled over 60 minutes, FIG. 3
Text: Amphetamine-induced increases in locomotor ambulation are well known and are widely used as a model of the positive symptoms of schizophrenia. This model is based on evidence that amphetamine increases motor behaviors and can induce a psychotic state in humans (Yui et al. (2000) Ann NY Acad Sci 914:1-12). Further, it is well known that amphetamine-induced increases in locomotor activity are blocked by antipsychotics drugs that are effective in the treatment of schizophrenia (Arnt (1995) Eur J Pharmacol 283:55-62). […]
(§1) The effects of compounds on PCP- or amphetamine-induced locomotor activation in mice were tested. […] Locomotor activity (ambulations) was monitored by a videotracking system (VideoTrack, Viewpoint, Champagne au Mont d'Or, France) that recorded the ambulatory movements of mice. […] On test days, test compounds (200 mg/kg i.p. (intraperitoneal)) or vehicle were administered immediately before the PCP (5 mg/kg s.c. (sub-cutaneous), amphetamine (3.0 mg/kg s.c.) or saline injection. Mice were placed into the locomotor boxes immediately after the PCP, amphetamine or saline vehicle injection and their locomotor activity, defined as the distance traveled in centimeters (cm), was measured for 60 minutes. […]
Statistical analyses were performed using GraphPad PRISM statistical software (GraphPad, San Diego, Calif., USA). Data were analyzed using unpaired t-tests. […]

native rat mGluR2 = target: T1, native rat mGluR2 (Rattus norvegicus, UniProt P31421); assay: [35S]GTPγS binding assay using cortical rat brain membranes; assay type: biochemical; conditions: FIG. 1
T1 construct: from tissue; host or cells: rat brain cortex membranes (Sprague-Dawley rats, Charles River Laboratories)
Text: The [^35S]GTPγS binding is a functional membrane-based assay used to study G-protein coupled receptor (GPCR) function. This method is using a binding assay to assess the initial step in receptor-mediated G protein activation in membranes prepared from cells expressing recombinant GPCR or using membranes from discrete area of the rat brain. In brief, the assay is measuring the activation of G proteins by catalyzing the exchange of guanosine 5′-diphosphate (GDP) by guanosine 5′-triphosphate (GTP) at the α subunit. The GTP-bounded G proteins dissociate into two subunits, Gα-GTP and Gβγ, which in turn regulate intracellular enzymes and ion channels. GTP is rapidly hydrolysed by the Gα-subunit (GTPases) and the G protein is deactivated and ready for new GTP exchange cycle (Harper (1998) Curr Protoc Pharmacol 2.6.1-10, John Wiley & Sons, Inc.). [^35S]GTPγS, a non-hydrolyzed analogue of GTP, is used for this purpose.
This method is widely used to study receptor activation of G protein in membranes prepared from rat brain tissue, including mGluR2 receptors (Schaffhauser et al 2003, Pinkerton et al, 2004). mGluR2 receptors are expressed in the rat brain cortex (Mutel et al (1998) J. Neurochem. 71:2558-64; Schaffhauser et al (1998) Mol. Pharmacol. 53:228-33) and are coupled to Gαi-protein, a preferential coupling for this method.
[^35S]GTPγS binding assay using cortical rat brain membranes preparation was used and adapted from Schaffhauser et al ((2003) Mol. Pharmacol. 4:798-810) for the detection of the positive allosteric modulator properties of the compounds of this invention on native rat mGluR2. In order to eliminate the possible interference with group III Gαi-protein coupled mGluRs (mGluR4, mGluR7, mGluR8; mGluR6 is not expressed in the cortex (Laurie et al (1997) Neuropharmacol. 36:145-52)), the potentiation of the response to a selective mGluR2 agonist, such as DCG-IV (Cartmell et al. (1998) Br. J. Pharmacol. 123(3):497-504) or LY379268 (Monn et al. (1999) J. Med. Chem 42:1027-40), by compounds described in the present invention was performed.
Cortices were dissected out from brains of 200-300 g Sprague-Dawley rats (Charles River Laboratories, L'Arbresle, France). Tissues were homogenized in 6 volumes (vol/wt) of 10% sucrose at 4° C. using a glass-teflon homogenizer. The homogenate was centrifuged at 1250 g for 10 min, and the supernatant was centrifuged at 40,000 g for 20 min (4° C.). The pellet was resuspended in 25 ml water using a Polytron disrupter (Kinematica AG, Luzern, Switzerland) and centrifuged for 10 min at 3000 g. (4° C.). The supernatant was centrifuged at 40,000 g for 20 min (4° C.). The supernatant was discarded and the pellet washed twice by resuspension in 10 volumes 5 mM HEPES-KOH, pH 7.4. The homogenate was frozen and thawed twice and centrifuged at 40,000 g for 20 min. The final pellet was resuspended in 5 mM HEPES-KOH, pH 7.4 and stored at −80° C. before its use. Protein concentration was determined by the Bradford method (Bio-Rad protein assay, Reinach, Switzerland) with bovine serum albumin as standard.
Measurement of mGluR2 positive allosteric modulators properties in rat cortical membranes was performed as follows: rat cortical membrane (1.5 μg) were incubated in 96-well microplates for 15 min at 30° C. in assay buffer (50 mM HEPES pH 7.4, 100 mM NaCl, 5 mM MgCl2, 10 μM GDP, 10 μg/ml saponin, EGTA 0.2 mM) with increasing concentrations of positive allosteric modulator (from 1 nM to 10 μM) and a minimal concentration of DCG-IV or LY379268, a selective mGluR2 agonist, that has been determined in previous experiments and that corresponds to the EC20, a concentration that gives 20% of the maximal response of the agonist, and is in accordance to published data (Pin et al. (1999) Eur. J. Pharmacol. 375:277-294). […]

Male C57BL6/j mice [2] = assay: PCP-induced locomotor activity in mice (phencyclidine model of schizophrenia); assay type: in vivo; conditions: 200 mg/kg i.p., PCP 5 mg/kg s.c., distance traveled over 60 minutes, FIG. 2
Text: PCP-induced increases in locomotor ambulation are a widely accepted animal model of schizophrenia. This model is based on the evidence that phencyclidine induces a schizophrenia-like syndrome in humans including increased motor behaviors, disruption of cognition and impairment of working memory (Steinpreis R E (1996) Behav Br Res. 74:45-55; Abi-Saab et al. (1998) Pharmacopsychiatry, 31:104-109). Further, it has also been shown that antipsychotic drugs that are effective in the treatment of schizophrenia reduce the locomotor activating effect of PCP (Gleason & Shannon (1997) Psychopharmacology, 129:79-84). […]
as §1

T1 sequence (P31421 19-872): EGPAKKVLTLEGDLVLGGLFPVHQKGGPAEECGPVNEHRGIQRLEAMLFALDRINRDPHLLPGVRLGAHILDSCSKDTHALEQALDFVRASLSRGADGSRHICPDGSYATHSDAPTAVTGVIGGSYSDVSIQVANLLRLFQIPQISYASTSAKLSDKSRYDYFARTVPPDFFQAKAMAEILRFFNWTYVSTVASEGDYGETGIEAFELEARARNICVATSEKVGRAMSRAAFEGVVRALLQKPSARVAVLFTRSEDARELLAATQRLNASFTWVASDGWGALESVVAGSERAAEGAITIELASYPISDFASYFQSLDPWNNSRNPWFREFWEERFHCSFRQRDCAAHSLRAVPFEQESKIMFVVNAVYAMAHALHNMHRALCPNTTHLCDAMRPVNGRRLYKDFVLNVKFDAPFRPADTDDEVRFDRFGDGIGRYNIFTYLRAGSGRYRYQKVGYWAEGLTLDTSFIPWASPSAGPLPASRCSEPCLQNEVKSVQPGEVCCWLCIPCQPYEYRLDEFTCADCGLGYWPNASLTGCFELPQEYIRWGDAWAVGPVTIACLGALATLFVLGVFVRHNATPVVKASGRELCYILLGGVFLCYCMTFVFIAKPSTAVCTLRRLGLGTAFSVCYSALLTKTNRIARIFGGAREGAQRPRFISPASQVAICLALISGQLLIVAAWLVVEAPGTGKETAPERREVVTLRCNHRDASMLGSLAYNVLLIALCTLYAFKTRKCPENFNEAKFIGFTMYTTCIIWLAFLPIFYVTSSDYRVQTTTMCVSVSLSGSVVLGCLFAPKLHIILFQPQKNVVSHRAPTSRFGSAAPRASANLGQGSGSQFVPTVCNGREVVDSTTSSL

SMILES: COc1ccc(-c2ccc(=O)n(Cc3ccc(Cl)cc3F)c2)cc1 [4-16]
- effect on the increase in locomotor activity induced by amphetamine (Male C57BL6/j mice [1]): significantly attenuated
- ability to increase the [GTPγ35S] binding induced by DCG-IV (native rat mGluR2; 10 μM compound with 50 nM DCG-IV, compared to agonist alone): significantly potentiated
- agonistic activity in the absence of DCG-IV (native rat mGluR2; 10 μM compound without 50 nM DCG-IV, compared to buffer value): no statistically significant agonistic activity
- melting point: 88 °C
- effect on the increase in locomotor activity induced by PCP (Male C57BL6/j mice [2]): significantly attenuated
